Test results from article PMC7761830, “Structure-Based Virtual Screening of Ultra-Large Library Yields Potent Antagonists for a Lipid GPCR” (Biomolecules, 2020).

Legend:
CysLT1R = settings: cited from earlier work; for pAct: CysLT1R, ChEMBL value, ref 29 (ChEMBL)
wild-type CysLT1R = biological target: T1, wild-type CysLT1R (Homo sapiens, UniProt Q9Y271); test: IP1 production assay, antagonist mode, co-stimulation with EC80 LTD4; assay type: cell-based
T1 construct: expressed in transfected cells; host or cells: HEK293 (ATCC CRL-1573), transient transfection with Lipofectamine 3000
T1 sequence (Q9Y271 1-337): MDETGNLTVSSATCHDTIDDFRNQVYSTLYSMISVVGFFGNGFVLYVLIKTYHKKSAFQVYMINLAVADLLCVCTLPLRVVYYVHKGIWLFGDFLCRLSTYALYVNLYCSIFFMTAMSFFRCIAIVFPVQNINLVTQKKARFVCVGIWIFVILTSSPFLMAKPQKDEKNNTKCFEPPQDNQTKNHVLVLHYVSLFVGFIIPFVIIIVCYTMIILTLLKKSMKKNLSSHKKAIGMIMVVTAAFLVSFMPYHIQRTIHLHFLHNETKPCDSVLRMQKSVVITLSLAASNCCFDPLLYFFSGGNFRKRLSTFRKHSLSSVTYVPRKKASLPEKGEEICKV
Procedure: (§1) For this assay, we used the Cisbio IP-One kit as previously described. […] At 48 h post-transfection, the media was removed and the cells were washed with fresh Hank’s Balanced Salt Solution (HBSS). […] After compound stimulation, the cells were incubated for 1 h at 37 °C and stimulated with IP1-D2 and Ab-Crypt reagents in Lysis Buffer. The cells were then incubated at room temperature for an additional hour. […] Normalized data were plotted using either the three-parameter or four-parameter EC50/IC50 fits of GraphPad Prism 8 (San Diego). […] Data represent the means ± SEM of at least three independent experiments performed in quadruplicate.

wild-type CysLT2R = biological target: T2, wild-type CysLT2R (Homo sapiens, UniProt Q9NS75); test: as above; assay type: cell-based; settings: for inhibition at 30 µM: HEK293, compound 30 µM, LTD4 at EC80, HEK293, wild-type CysLT2R, read-out: inhibition of LTD4-induced IP1 production, single-concentration screen; for Emax: HEK293, read-out: CysLT2R (LTD4) % Max Inhibition ± SEM
T2 construct: expressed in transfected cells; host or cells: HEK293 (ATCC CRL-1573), transient transfection with Lipofectamine 3000
T2 sequence (Q9NS75 1-346): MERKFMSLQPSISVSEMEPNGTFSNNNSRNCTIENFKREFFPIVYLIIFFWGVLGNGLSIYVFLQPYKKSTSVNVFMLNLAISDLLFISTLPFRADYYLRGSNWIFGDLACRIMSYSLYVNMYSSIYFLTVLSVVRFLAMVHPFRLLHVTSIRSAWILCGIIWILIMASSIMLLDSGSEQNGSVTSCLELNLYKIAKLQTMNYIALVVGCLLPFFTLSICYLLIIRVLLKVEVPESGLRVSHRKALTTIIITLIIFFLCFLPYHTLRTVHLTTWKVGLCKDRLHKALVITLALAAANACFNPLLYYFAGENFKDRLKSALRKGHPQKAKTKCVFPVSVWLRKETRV
Procedure: as §1

Compound | remaining activity at 30 µM (wild-type CysLT1R) | remaining activity at 30 µM (wild-type CysLT2R) | also measured
O=C(O)c1cc(Cl)cc2c(=O)cc(-c3cccc(C=Cc4ccc5ccccc5n4)c3)oc12 [CHEMBL416769, C(=Cc1ccc2ccccc2n1)c1cccc(c1)C1=CC(c2cc(cc(C(O)=O)c2O1)[Cl])=O] | – | – | pAct (CysLT1R): 8.0
CC(C)(O)c1ccccc1CC[C@@H](SCC1(CC(=O)O)CC1)c1cccc(C=Cc2ccc3c(n2)CCS3)c1 [CHEMBL140058, CC(C)(c1ccccc1CC[C@H](c1cccc(C=Cc2ccc3c(CCS3)n2)c1)SCC1(CC1)CC(O)=O)O] | – | – | pAct (CysLT1R): 8.5
O=C(Nc1cccc2c(=O)cc(-c3nn[nH]n3)oc12)c1ccc(OCCCCc2ccccc2)cc1 [CHEMBL21333, C(CCOc1ccc(cc1)C(Nc1cccc2C(C=C(c3nn[nH]n3)Oc12)=O)=O)Cc1ccccc1] | – | – | pAct (CysLT1R): 9.1
COc1cccc2c(C=CC(=O)Nc3cccc(C=Cc4ccc5ccc(Cl)cc5n4)c3)c(C(=O)O)[nH]c12 [CHEMBL3810210, COc1cccc2c(C=CC(Nc3cccc(C=Cc4ccc5ccc(cc5n4)[Cl])c3)=O)c(C(O)=O)[nH]c12] | – | – | pAct (CysLT1R): 8.2
CN(C)C(=O)CCS[C@H](SCCC(=O)O)c1cccc(C=Cc2ccc3ccc(Cl)cc3n2)c1.[Na] [CHEMBL89340, CN(C)C(CCS[C@@H](c1cccc(C=Cc2ccc3ccc(cc3n2)[Cl])c1)SCCC(O)=O)=O.[Na]] | – | – | pAct (CysLT1R): 8.5
CCCC(CCc1nnn[nH]1)Cc1ccc(OCc2ccc3ccccc3n2)cc1 (stereo not shown) [CHEMBL97356, CCCC(CCc1nnn[nH]1)Cc1ccc(cc1)OCc1ccc2ccccc2n1] | – | – | pAct (CysLT1R): 8.0
Cc1c(Cl)cccc1CCCCOc1ccc(C#Cc2cccc3c(CCCC(=O)O)c(C)n(CC(=O)O)c23)cc1 [CHEMBL3597618, Cc1c(CCCCOc2ccc(C#Cc3cccc4c(CCCC(O)=O)c(C)n(CC(O)=O)c34)cc2)cccc1[Cl]] | – | – | pAct (CysLT1R): 9.7
COc1ccc(NS(=O)(=O)C(F)(F)F)cc1C[C@H]1[C@@H](CO)c2cc(OCc3ccc4ccc(C)cc4n3)ccc2OC1(C)C [CHEMBL1214531, Cc1ccc2ccc(COc3ccc4c(c3)[C@H](CO)[C@H](Cc3cc(ccc3OC)NS(C(F)(F)F)(=O)=O)C(C)(C)O4)nc2c1] | – | – | pAct (CysLT1R): 8.4
O=C(Nc1ccc2ccc(OCc3ccc4ccccc4n3)cc2c1)OCc1ccc(C(=O)O)cc1 [CHEMBL132167, C(c1ccc(cc1)C(O)=O)OC(Nc1ccc2ccc(cc2c1)OCc1ccc2ccccc2n1)=O] | – | – | pAct (CysLT1R): 8.0
COc1cc(C(=O)NS(=O)(=O)c2ccccc2C)ccc1Cc1cn(C)c2ccc(NC(=O)NC3CCCC3)cc12 [CHEMBL431348] | – | – | Kd (CysLT1R; activity of the ligand from ChEMBL, ref ChEMBL, read-out: Kd (CysLT1)): 0.79 nM
CC(Sc1ccccc1C(=O)O)C(=O)N1CC(=O)Nc2ccccc21 (stereo not shown) [BRI-12351] | 77.6% | 82.6% | –
O=C(O)CNC(=O)Cc1ccc(NC(=O)c2n[nH]c3ccccc23)cc1 [BRI-12313] | 88.6% | 110% | –
O=C(O)CCC1CCCCN1C(=O)Cc1c[nH]c2cc(F)ccc12 (stereo not shown) [BRI-12310] | 77.3% | 91.6% | –
O=C(O)c1c(F)cccc1NS(=O)(=O)N1CCc2ccccc2C1 [BRI-12304] | 83.8% | 106% | –
CC(C)c1c(C(=O)Nc2ccc3[nH]c(=O)[nH]c3c2)cnn1-c1ccccn1 [BRI-12339] | 82% | 99.8% | –
O=C(Nc1ccc2c(c1)COC2)N1CCCCC1c1cn[nH]c1 (stereo not shown) [BRI-12312] | 77.4% | 87.2% | –
O=C(O)c1csc(S(=O)(=O)Nc2cccc(NC(=O)c3ccco3)c2)c1 [BRI-12344] | 72.5% | 96.8% | –
CC(=O)c1cc2c(cc1NC(=O)COc1ccc(Cl)cc1C(N)=O)OCO2 [BRI-12343] | 73.7% | 88.9% | –
O=C(Nc1ccccc1C(=O)N1CCn2ncnc2C1)c1ccc(Cl)cc1 [BRI-12419] | 85.7% | 48.1% | –
CNC(=O)c1cccc(NC(=O)CN2c3cccc4cccc(c34)S2(=O)=O)c1 [BRI-12322] | 69.8% | 79.1% | –
CC(=O)Nc1ccccc1OS(=O)(=O)c1cccc2cc(C)cnc12 [BRI-12318] | 74.1% | 88.2% | –
Cn1nc(C2CC2)nc1CC(=O)Nc1ccc(N2CCNC2=O)cc1 [BRI-12402] | 66.8% | 40.2% | inhibition at 30 µM (wild-type CysLT2R): ≥ 50%; Emax (wild-type CysLT2R): 8 ± 4%
O=C(c1ccc2nnnn2c1)N1CC=C(c2c[nH]c3ccccc23)CC1 [BRI-12332] | 96.7% | 91.2% | –
Cc1cccc(-c2nnc(SCc3ccc(C(N)=O)cc3)n2CC(=O)O)c1 [BRI-12350] | 68.4% | 79.8% | –
CC(=O)c1ccc(OCC(=O)NC(CC(=O)O)c2cccs2)cc1 (stereo not shown) [BRI-12319] | 76.4% | 78.4% | –
O=C(CC1SC(c2cc3ccccc3oc2=O)=NC1=O)Nc1ccc(F)cc1 (stereo not shown) [BRI-12345] | 75.3% | 101% | –
O=C(O)CNC(=O)c1ccc(S(=O)(=O)Nc2ccc3sncc3c2)cc1 [BRI-12413] | 80% | 49.5% | inhibition at 30 µM (wild-type CysLT2R): ≥ 50%; Emax (wild-type CysLT2R): 5 ± 6%
CC1CC(C(=O)O)CN(C(=O)Nc2cccc(NC(=O)c3ccccc3)c2)C1 (stereo not shown) [BRI-12308] | 95.6% | 101% | –
O=C(O)c1cc(S(=O)(=O)NCCc2ccc(Cl)cc2)ccc1O [BRI-12352] | 73.4% | 87.8% | –
COc1ccc(C2=NN(C(=O)CCC(=O)O)C(c3cccs3)C2)cc1 (stereo not shown) [BRI-12348] | 89.5% | 107% | –

Continued, in another order:

remaining activity at 30 µM (wild-type CysLT1R) | remaining activity at 30 µM (wild-type CysLT2R) | Compound | also measured
82.6% | 57.3% | O=C(O)CC(CNS(=O)(=O)c1ccc(Oc2ccc(Cl)cc2)cc1)C(=O)O (stereo not shown) [BRI-12421] | –
72.4% | 67.7% | O=C(Nc1ccc(C(=O)NC2CCCCC2)c(O)c1)c1ccc(F)c(S(=O)(=O)NC2CC2)c1 [BRI-12446] | –
78.7% | 42.4% | O=C(O)COc1cccc(CNC(=O)c2cnc(-c3ncccn3)s2)c1 [BRI-12427] | inhibition at 30 µM (wild-type CysLT2R): ≥ 50%; Emax (wild-type CysLT2R): 15 ± 13%
62.6% | 88.7% | Cc1cccn2cc(-c3cccc(NC(=O)Cn4c(=O)[nH]c(=O)c5ccccc54)c3)nc12 [BRI-12438] | –
84.2% | 79.8% | Cc1onc(N)c1S(=O)(=O)Nc1ccc(N2CCCC2)cc1C(=O)O [BRI-12425] | –
68.3% | 74.6% | O=C(O)CCc1cccc(NC(=O)c2ccc(-c3cccs3)[nH]c2=O)c1 [BRI-12475] | –
81% | 76.9% | COc1ccc(N(CCC(=O)O)S(=O)(=O)c2csc(-c3ccc(F)cc3)n2)cc1 [BRI-12432] | –
84.2% | 71.1% | NC(=O)c1ncn(C2CCCN(c3nc(-c4ccccc4)cs3)C2)n1 (stereo not shown) [BRI-12455] | –
88.3% | 72.4% | O=C(O)C(Cc1c[nH]c2ncccc12)NS(=O)(=O)c1csc(-c2ccc(F)cc2)n1 (stereo not shown) [BRI-12439] | –
95.9% | 88.5% | Cc1nc2c(C(N)=O)cnn2c(C)c1CCC(=O)N(C)c1ccc2cc[nH]c2c1 [BRI-12448] | –
88.2% | 50.7% | O=C(O)Cn1ccc(NC(=O)CNC(=O)Cc2cccc(F)c2)n1 [BRI-12471] | –
67.5% | 67.8% | O=C(O)CC1CN(S(=O)(=O)C=Cc2ccc(Cl)cc2)c2ccccc21 (stereo not shown) [BRI-12449] | –
72.3% | 68% | O=C(O)CNS(=O)(=O)c1cccc(NC(=O)c2ccc(C3CCC3)cc2)c1 [BRI-12429] | –
91.9% | 80.5% | Cc1ccc(C(NS(=O)(=O)c2ccc(C(=O)NCC(=O)O)cc2)c2ccccn2)cc1 (stereo not shown) [BRI-12437] | –
81% | 58.6% | CCc1ccc(CN(C)S(=O)(=O)c2[nH]ncc2C(=O)O)cc1 [BRI-12470] | –
74.5% | 51.7% | O=C(O)CNC(=O)c1ccc(NC(=O)CCn2cccc2)cc1 [BRI-12442] | –
